In patent publication US9518026B2, “5-aminopyrazole-4-carboxamide inhibitors of CDPK1 from T. gondii and C. parvum” (UNIVERSITY OF WASHINGTON THROUGH ITS CENTER FOR …, priority 2013, dated 2016):
Where two headings read alike, the source gives them in different places.

How the values were obtained:
[1] = Cytotoxicity against CRL8155 cell line; type: cell-based; conditions: human, CRL8155 cells (lymphoblast, spleen)
TgCDPK1 = TgCDPK1 (Toxoplasma gondii, UniProt Q9BJF5); experiment: biochemical
Src = Src (Homo sapiens (Human), UniProt P12931); experiment: biochemical
Chain of Src (P12931 270-523): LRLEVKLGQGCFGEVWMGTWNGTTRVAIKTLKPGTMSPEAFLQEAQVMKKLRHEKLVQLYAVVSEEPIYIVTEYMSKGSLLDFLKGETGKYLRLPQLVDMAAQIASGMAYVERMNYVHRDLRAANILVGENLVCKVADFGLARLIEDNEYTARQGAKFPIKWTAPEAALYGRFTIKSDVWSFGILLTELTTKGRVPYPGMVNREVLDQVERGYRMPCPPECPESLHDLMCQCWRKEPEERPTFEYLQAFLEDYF

CpCDPK1 = CpCDPK1 (Cryptosporidium parvum (strain Iowa II), UniProt A3FQ16); experiment: biochemical
Chain of CpCDPK1 (A3FQ16 1-538): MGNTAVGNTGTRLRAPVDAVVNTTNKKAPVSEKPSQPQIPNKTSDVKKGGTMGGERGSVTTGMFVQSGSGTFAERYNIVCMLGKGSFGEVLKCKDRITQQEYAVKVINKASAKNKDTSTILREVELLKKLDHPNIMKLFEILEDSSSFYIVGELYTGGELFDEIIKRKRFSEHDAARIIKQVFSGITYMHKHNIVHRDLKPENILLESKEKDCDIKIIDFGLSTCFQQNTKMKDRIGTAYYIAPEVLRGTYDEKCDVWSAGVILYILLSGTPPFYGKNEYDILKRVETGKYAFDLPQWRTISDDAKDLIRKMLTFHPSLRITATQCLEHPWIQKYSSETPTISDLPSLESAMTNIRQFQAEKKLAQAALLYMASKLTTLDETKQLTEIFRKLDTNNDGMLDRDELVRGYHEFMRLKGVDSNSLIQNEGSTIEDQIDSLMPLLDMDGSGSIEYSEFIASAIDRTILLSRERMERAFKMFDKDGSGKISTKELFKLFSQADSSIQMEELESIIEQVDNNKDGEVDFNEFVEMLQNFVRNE

T. gondii = experiment: Inhibition of T. gondii cell proliferation; type: cell-based; conditions: Toxoplasma gondii
Cell toxicity in HepG2 = type: cell-based; conditions: human, HepG2 cells (hepatocellular carcinoma); Table 4
Procedure: All compounds were assayed for inhibition of TgCDPK1 and CpCDPK1 and on the small-gatekeeper (Thr) human kinases, Src and Abl. Human cell toxicity was evaluated in two human cell lines, HepG2 (hepatocellular carcinoma) and CRL8155 (lymphoblast, spleen). hERG inhibition has been associated with long Q-T syndrome (cardiotoxicity), and the compounds were evaluated for hERG inhibitory activity.

Abl = Abl (Homo sapiens (Human), UniProt P00519); experiment: biochemical
Chain of Abl (P00519 242-493): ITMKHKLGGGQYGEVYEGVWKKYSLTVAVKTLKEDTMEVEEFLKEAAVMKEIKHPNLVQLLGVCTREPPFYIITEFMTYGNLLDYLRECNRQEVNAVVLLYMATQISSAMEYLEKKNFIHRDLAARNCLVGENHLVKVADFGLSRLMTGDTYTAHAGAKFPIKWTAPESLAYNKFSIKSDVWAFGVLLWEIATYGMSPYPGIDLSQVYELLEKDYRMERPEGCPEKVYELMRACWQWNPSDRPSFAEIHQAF

[2] = Pharmacokinetic studies in mice; conditions: mouse, in vivo, 10 mg/kg
hERG = hERG (Homo sapiens (Human), UniProt Q12809); experiment: biochemical; type: binding
Chain of hERG (Q12809 whole entry): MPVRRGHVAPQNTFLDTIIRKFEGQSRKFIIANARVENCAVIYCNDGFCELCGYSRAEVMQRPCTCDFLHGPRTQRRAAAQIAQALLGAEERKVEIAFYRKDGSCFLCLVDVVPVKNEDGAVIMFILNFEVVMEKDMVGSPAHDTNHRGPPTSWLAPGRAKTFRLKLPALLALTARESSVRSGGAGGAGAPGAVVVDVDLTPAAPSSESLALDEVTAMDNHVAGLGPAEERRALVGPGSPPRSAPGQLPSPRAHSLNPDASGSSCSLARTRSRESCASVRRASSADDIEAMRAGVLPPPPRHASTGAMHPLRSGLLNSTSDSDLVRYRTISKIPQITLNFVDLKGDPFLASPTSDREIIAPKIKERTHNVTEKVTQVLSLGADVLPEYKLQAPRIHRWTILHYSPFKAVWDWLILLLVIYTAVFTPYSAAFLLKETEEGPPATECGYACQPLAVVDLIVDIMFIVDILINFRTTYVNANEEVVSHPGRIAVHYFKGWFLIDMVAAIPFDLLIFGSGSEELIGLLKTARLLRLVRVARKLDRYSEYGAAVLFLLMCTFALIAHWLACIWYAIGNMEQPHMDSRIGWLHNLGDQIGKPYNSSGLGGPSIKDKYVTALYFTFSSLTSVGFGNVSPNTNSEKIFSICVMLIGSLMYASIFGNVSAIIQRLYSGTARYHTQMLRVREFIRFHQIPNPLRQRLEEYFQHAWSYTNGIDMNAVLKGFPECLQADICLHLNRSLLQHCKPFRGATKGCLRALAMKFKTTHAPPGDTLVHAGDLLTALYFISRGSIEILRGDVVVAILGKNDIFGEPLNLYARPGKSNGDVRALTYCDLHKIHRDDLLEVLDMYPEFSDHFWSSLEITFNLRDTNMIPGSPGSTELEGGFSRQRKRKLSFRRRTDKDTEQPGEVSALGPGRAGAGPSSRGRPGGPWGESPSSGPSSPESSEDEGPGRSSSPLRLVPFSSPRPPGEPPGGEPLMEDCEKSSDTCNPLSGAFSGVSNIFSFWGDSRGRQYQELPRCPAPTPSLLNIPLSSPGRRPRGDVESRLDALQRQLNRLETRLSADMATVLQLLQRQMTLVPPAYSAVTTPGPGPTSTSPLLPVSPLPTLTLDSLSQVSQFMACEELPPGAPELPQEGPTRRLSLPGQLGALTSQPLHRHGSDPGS

C. parvum = experiment: Inhibition of C. parvum proliferation; type: cell-based; conditions: Cryptosporidium parvum, read-out: Inhibit Parasite Prolif. (EC50, μM) C. parvum
[3] = Table 2, read-out: Cytotoxicity (CRL8155) EC50
[4] = Table 1, KinaseGlo, Syntide 2 peptide substrate, read-out: CpCDPK1 IC50
[5] = Table 3, read-out: Cytotoxicity (CRL8155) EC50
[6] = Table 3, read-out: T. gondii EC50
[7] = Table 1, KinaseGlo, Syntide 2 peptide substrate, read-out: TgCDPK1 IC50
[8] = Table 4, read-out: Cell toxicity (EC50, μM) CRL 8155
[9] = Enzyme Inhibition (IC50, μM) SrcKD, Table 4
[10] = Table 4, read-out: Enzyme Inhibition (IC50, μM) Cp CDPK1

Chain of TgCDPK1 (Q9BJF5 1-507): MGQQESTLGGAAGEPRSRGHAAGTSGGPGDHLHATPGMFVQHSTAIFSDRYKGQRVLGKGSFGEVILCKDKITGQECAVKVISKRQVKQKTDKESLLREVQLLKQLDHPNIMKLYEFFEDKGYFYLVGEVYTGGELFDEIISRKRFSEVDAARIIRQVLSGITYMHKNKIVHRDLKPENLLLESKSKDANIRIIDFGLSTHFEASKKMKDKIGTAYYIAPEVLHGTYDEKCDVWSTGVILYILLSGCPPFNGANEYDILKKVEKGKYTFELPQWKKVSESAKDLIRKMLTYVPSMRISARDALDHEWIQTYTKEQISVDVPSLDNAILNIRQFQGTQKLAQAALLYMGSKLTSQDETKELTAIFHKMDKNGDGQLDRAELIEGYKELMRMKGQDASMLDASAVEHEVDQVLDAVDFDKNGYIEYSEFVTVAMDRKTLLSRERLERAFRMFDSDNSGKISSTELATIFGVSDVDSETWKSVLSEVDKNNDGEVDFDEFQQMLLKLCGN

CC(C)(C)n1nc(-c2cnc3ccccc3c2)c(C(N)=O)c1N [Compound 38, 5-amino-1-(tert-butyl)-3-(quinolin-3-yl)-1H-pyrazole-4-carboxamide]
EC50 [1, 3]: > 40 µM
IC50 (TgCDPK1; read-out: TgCDPK1 IC50): 0.006 µM
IC50 (Src; Src IC50 (μM), Table 2): > 10 µM
IC50 (CpCDPK1; [4]): 0.007 µM

NC(=O)c1c(-c2cnc3cc(OC4CCC4)ccc3c2)nn(C2CCCCC2)c1N [Compound 1647, 5-amino-3-(7-cyclobutoxyquinolin-3-yl)-1-cyclohexyl-1H-pyrazole-4-carboxamide]
EC50 [1, 5]: > 40 µM
EC50 (T. gondii; [6]): 1.14 µM
IC50 (TgCDPK1; [7]): 0.019 µM
IC50 (Src): > 10 µM
IC50 (CpCDPK1; [4]): 0.008 µM

NC(=O)c1c(-c2cnc3cc(OC4CCC4)ccc3c2)nn(C2CCCC2)c1N [Compound 1658, 5-amino-3-(7-cyclobutoxyquinolin-3-yl)-1-cyclopentyl-1H-pyrazole-4-carboxamide]
EC50 [1, 5]: > 40 µM
EC50 (T. gondii; [6]): 0.4 µM
IC50 (TgCDPK1; [7]): 0.012 µM
IC50 (Src): > 10 µM
IC50 (CpCDPK1; [4]): 0.004 µM

NC(=O)c1c(-c2ccc3nc(OC4CCC4)ccc3c2)nn(C2CCCC2)c1N [Compound 1653, 5-amino-3-(2-cyclobutoxyquinolin-6-yl)-1-cyclopentyl-1H-pyrazole-4-carboxamide]
EC50 [1, 5]: > 40 µM
EC50 (T. gondii; [6]): 0.21 µM
IC50 (TgCDPK1; [7]): 0.012 µM
IC50 (Src): > 10 µM
IC50 (CpCDPK1; [4]): 0.006 µM

CCCOc1ccc2cc(-c3nn(C(C)(C)C)c(N)c3C(N)=O)cnc2c1 [Compound 1566, 5-amino-1-tert-butyl-3-(7-propoxyquinolin-3-yl)-1H-pyrazole-4-carboxamide]
EC50 (Cell toxicity in HepG2): > 40 µM
EC50 [1, 5]: > 40 µM
EC50 [1, 8]: 16 µM
IC50 (Abl): > 10000 nM
IC50 (Src; [9]): > 10 µM
IC50 (Src; Src IC50 (μM), Table 3): > 10 µM

CCOc1ccc2cc(-c3nn(CC4CC4)c(N)c3C(N)=O)cnc2c1 [Compound 1598, 5-amino-1-(cyclopropylmethyl)-3-(7-ethoxyquinolin-3-yl)-1H-pyrazole-4-carboxamide]
EC50 [1, 5]: > 40 µM
IC50 (TgCDPK1; [7]): 0.012 µM
IC50 (Src; Src IC50 (μM), Table 3): > 10 µM
IC50 (CpCDPK1; [4]): 0.005 µM

CC(C)(CO)Cn1nc(-c2ccc3nc(OC4CCC4)ccc3c2)c(C(N)=O)c1N [Compound 1645, 5-amino-3-(2-cyclobutoxyquinolin-6-yl)-1-(3-hydroxy-2,2-dimethylpropyl)-1H-pyrazole-4-carboxamide]
EC50 [1, 5]: > 40 µM
EC50 (T. gondii; [6]): 0.48 µM
IC50 (Src; Src IC50 (μM), Table 3): > 10 µM
IC50 (CpCDPK1; [4]): 0.005 µM

CCOc1ccc2cc(-c3nn(C4CCCCC4)c(N)c3C(N)=O)ccc2n1 [Compound 1633, 5-amino-1-cyclohexyl-3-(2-ethoxyquinolin-6-yl)-1H-pyrazole-4-carboxamide]
EC50 [1, 5]: > 40 µM
IC50 (TgCDPK1; [7]): 0.004 µM
IC50 (Src; Src IC50 (μM), Table 3): > 10 µM
IC50 (CpCDPK1; [4]): 0.002 µM

NC(=O)c1c(-c2cnc3cc(OC4CCC4)ccc3c2)nn(C2CCC2)c1N [Compound 1657, 5-amino-3-(7-cyclobutoxyquinolin-3-yl)-1-cyclobutyl-1H-pyrazole-4-carboxamide]
EC50 [1, 5]: > 40 µM
EC50 (T. gondii; [6]): 0.69 µM
IC50 (TgCDPK1; [7]): 0.012 µM
IC50 (Src): > 10 µM

COc1ccc2cc(-c3nn(C(C)(C)C)c(N)c3C(N)=O)ccc2c1 [Compound 25, 5-amino-1-(tert-butyl)-3-(6-methoxynaphthalen-2-yl)-1H-pyrazole-4-carboxamide]
EC50 (Cell toxicity in HepG2): > 40 µM
EC50 [1, 3]: > 40 µM
EC50 [1, 8]: > 40 µM
AUC [2]: 5.94 µM·h
Cmax [2]: 3.1 µM
Tmax [2]: 30 min
IC50 (hERG): > 10000 nM
EC50 (C. parvum): 0.1 µM

CCCOc1ccc2cc(-c3nn(C(C)(C)C)c(N)c3C(N)=O)ccc2c1 [Compound 26, 5-amino-1-(tert-butyl)-3-(6-propoxynaphthalen-2-yl)-1H-pyrazole-4-carboxamide]
EC50 (Cell toxicity in HepG2): > 40 µM
EC50 [1, 8]: 38 µM
IC50 (Abl): > 10000 nM
EC50 (T. gondii; Table 4, read-out: Inhibit Parasite Prolif. (EC50, μM) T. gondii): 0.37 µM
IC50 (TgCDPK1; read-out: Enzyme Inhibition (IC50, μM) Tg CDPK1): 0.007 µM
IC50 (TgCDPK1; read-out: TgCDPK1 IC50): 0.007 µM
IC50 (Src): 7.8 µM
IC50 (CpCDPK1; [4]): 0.01 µM
IC50 (CpCDPK1; [10]): 0.01 µM

COc1ccc2cc(-c3nn(C(C)(C)C)c(N)c3C(N)=O)cnc2c1 [Compound 1543, 5-amino-1-tert-butyl-3-(7-methoxyquinolin-3-yl)-1H-pyrazole-4-carboxamide]
EC50 (Cell toxicity in HepG2): > 40 µM
EC50 [1, 5]: > 40 µM
EC50 [1, 8]: > 40 µM
IC50 (Abl): > 10000 nM
IC50 (Src; [9]): > 10 µM
IC50 (Src; Src IC50 (μM), Table 3): > 30 µM
IC50 (CpCDPK1; [4]): 0.003 µM
IC50 (CpCDPK1; [10]): 0.003 µM

CCOc1ccc2cc(-c3nn(CC4CC4)c(N)c3C(N)=O)ccc2n1 [Compound 1635, 5-amino-1-(cyclopropylmethyl)-3-(2-ethoxyquinolin-6-yl)-1H-pyrazole-4-carboxamide]
EC50 [1, 5]: > 40 µM
IC50 (TgCDPK1; [7]): 0.006 µM
IC50 (Src; Src IC50 (μM), Table 3): > 10 µM
IC50 (CpCDPK1; [4]): 0.003 µM

CC(C)(CO)Cn1nc(-c2cnc3cc(OC4CCC4)ccc3c2)c(C(N)=O)c1N [Compound 1644, 5-amino-3-(7-cyclobutoxyquinolin-3-yl)-1-(3-hydroxy-2,2-dimethylpropyl)-1H-pyrazole-4-carboxamide]
EC50 [1, 5]: > 40 µM
EC50 (T. gondii; [6]): 0.77 µM
IC50 (TgCDPK1; [7]): 0.012 µM
IC50 (Src): > 10 µM
IC50 (CpCDPK1; [4]): 0.005 µM

NC(=O)c1c(-c2ccc3nc(OC4CCC4)ccc3c2)nn(C2CCCCC2)c1N [Compound 1646, 5-amino-3-(2-cyclobutoxyquinolin-6-yl)-1-cyclohexyl-1H-pyrazole-4-carboxamide]
EC50 [1, 5]: > 40 µM
EC50 (T. gondii; [6]): 0.31 µM
IC50 (TgCDPK1; [7]): 0.016 µM
IC50 (Src): > 10 µM
IC50 (CpCDPK1; [4]): 0.013 µM

CCOc1ccc2cc(-c3nn(C(C)(C)C)c(N)c3C(N)=O)ccc2c1 [Compound 3, 5-amino-1-tert-butyl-3-(6-ethoxynaphthalen-2-yl)-1H-pyrazole-4-carboxamide]
EC50 (Cell toxicity in HepG2): > 40 µM
EC50 (C. parvum): 0.05 µM

CCOc1ccc2cc(-c3nn(C4CCCCC4)c(N)c3C(N)=O)cnc2c1 [Compound 1571, 5-amino-1-cyclohexyl-3-(7-ethoxyquinolin-3-yl)-1H-pyrazole-4-carboxamide]
EC50 (Cell toxicity in HepG2): > 40 µM
EC50 [1, 8]: > 40 µM
IC50 (Abl): > 10000 nM
IC50 (Src; [9]): 10 µM
IC50 (Src; Src IC50 (μM), Table 3): > 10 µM
IC50 (CpCDPK1; [4]): 0.005 µM

CC(C)(C)n1nc(-c2ccc3nc(OC4CC4)ccc3c2)c(C(N)=O)c1N [Compound 1643, 5-amino-1-(tert-butyl)-3-(2-cyclopropoxyquinolin-6-yl)-1H-pyrazole-4-carboxamide]
EC50 [1, 5]: > 40 µM
IC50 (TgCDPK1; [7]): 0.0057 µM
IC50 (Src; Src IC50 (μM), Table 3): > 10 µM
IC50 (CpCDPK1; [4]): 0.003 µM

CC(C)(C)n1nc(-c2ccc3nc(OC4CCC4)ccc3c2)c(C(N)=O)c1N [Compound 1639, 5-amino-1-(tert-butyl)-3-(2-cyclobutoxyquinolin-6-yl)-1H-pyrazole-4-carboxamide]
EC50 [1, 5]: > 40 µM
IC50 (TgCDPK1; [7]): 0.005 µM
IC50 (Src; Src IC50 (μM), Table 3): > 10 µM
IC50 (CpCDPK1; [4]): 0.006 µM

CCOc1ccc2cc(-c3nn(C(C)(C)C)c(N)c3C(N)=O)ccc2n1 [Compound 1597, 5-amino-1-(tert-butyl)-3-(2-ethoxyquinolin-6-yl)-1H-pyrazole-4-carboxamide]
EC50 [1, 5]: > 40 µM
IC50 (Src; Src IC50 (μM), Table 3): > 10 µM
IC50 (CpCDPK1; [4]): 0.003 µM

NC(=O)c1c(-c2ccc3nc(OC4CCC4)ccc3c2)nn(C2CCC2)c1N [Compound 1656, 5-amino-3-(2-cyclobutoxyquinolin-6-yl)-1-cyclobutyl-1H-pyrazole-4-carboxamide]
EC50 [1, 5]: > 40 µM
EC50 (T. gondii; [6]): 0.069 µM
IC50 (TgCDPK1; [7]): 0.007 µM
IC50 (Src): > 10 µM

CCOc1ccc2cc(-c3nn(C(C)C)c(N)c3C(N)=O)cnc2c1 [Compound 1572, 5-amino-3-(7-ethoxyquinolin-3-yl)-1-isopropyl-1H-pyrazole-4-carboxamide]
EC50 (Cell toxicity in HepG2): > 40 µM
EC50 [1, 8]: > 40 µM
IC50 (CpCDPK1; [4]): 0.005 µM
